Test results: PubChem BioAssay AID1918934 (Molecular Pharmacology Branch, DTP, NCI, 2023)
Values joined by “and” are separate entries in the source; they are usually repeats but may differ in a detail not shown here. Identical values can stand only once.

Tested on: 292921-168-R-J2-PDC complex spheroid viability
Assay: Anticancer human tumor 292921-168-R-J2-PDC patient-derived pancreatic carcinoma cell line growth inhibition
Settings: for viability, T/C: stronger effect = lower value
Method in brief: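 Complex spheroids of tumor cells with HUVEC and human MSCs, exposed to iadademstat combined with other agents. Each agent tested in half-log steps from near clinical Cmax (else 10 microM top), DMSO ≤0.25%.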

[1] = curve of first compound, second compound 0.1 µM
[2] = curve of first compound, second compound 0.316 µM
[3] = curve of first compound, second compound 1 µM
[4] = curve of first compound, second compound 3.16 µM
[5] = curve of first compound, second compound 10 µM
[6] = second compound 0.1 µM, first compound 0.00316 µM
[7] = second compound 0.1 µM, first compound 0.01 µM
[8] = second compound 0.1 µM, first compound 0.0316 µM
[9] = second compound 0.1 µM, first compound 0.1 µM
[10] = second compound 0.1 µM, first compound 0.316 µM
[11] = second compound 0.1 µM, first compound 1 µM
[12] = second compound 0.316 µM, first compound 0.00316 µM
[13] = second compound 0.316 µM, first compound 0.01 µM
[14] = second compound 0.316 µM, first compound 0.0316 µM
[15] = second compound 0.316 µM, first compound 0.1 µM
[16] = second compound 0.316 µM, first compound 0.316 µM
[17] = second compound 0.316 µM, first compound 1 µM
[18] = second compound 1 µM, first compound 0.00316 µM
[19] = second compound 1 µM, first compound 0.01 µM
[20] = second compound 1 µM, first compound 0.0316 µM
[21] = second compound 1 µM, first compound 0.1 µM
[22] = second compound 1 µM, first compound 0.316 µM
[23] = second compound 1 µM, first compound 1 µM
[24] = second compound 3.16 µM, first compound 0.00316 µM
[25] = second compound 3.16 µM, first compound 0.01 µM
[26] = second compound 3.16 µM, first compound 0.0316 µM
[27] = second compound 3.16 µM, first compound 0.1 µM
[28] = second compound 3.16 µM, first compound 0.316 µM
[29] = second compound 3.16 µM, first compound 1 µM
[30] = second compound 10 µM, first compound 0.00316 µM
[31] = second compound 10 µM, first compound 0.01 µM
[32] = second compound 10 µM, first compound 0.0316 µM
[33] = second compound 10 µM, first compound 0.1 µM
[34] = second compound 10 µM, first compound 0.316 µM
[35] = second compound 10 µM, first compound 1 µM
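Further: seven day compound exposure before luminescent viability read.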
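Wherever viability, T/C is given: 100% = DMSO vehicle control wells.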

CC1COCCN1c1cc(-c2ccnn2C)c2ccnc(-c3ccn[nH]3)c2n1 (centres undefined) + NC1CC1c1ccc(-c2cccc(O)c2)cc1
IC50 [1]: < 3.16 nM | IC50 [2]: < 3.16 nM | IC50 [3]: < 3.16 nM | IC50 [4]: < 3.16 nM | IC50 [5]: < 3.16 nM | viability, T/C [6]: 16.9% | viability, T/C [7]: 15.3% | viability, T/C [8]: 14.2% | viability, T/C [9]: 15.7% | viability, T/C [10]: 16.2% | viability, T/C [11]: 17.7% | viability, T/C [12]: 17.2% | viability, T/C [13]: 14.9% | viability, T/C [14]: 13.2% | viability, T/C [15]: 14.3% | viability, T/C [16]: 15.9% | viability, T/C [17]: 16.7% | viability, T/C [18]: 17.7% | viability, T/C [19]: 15.4% | viability, T/C [20]: 14.1% | viability, T/C [21]: 12.7% | viability, T/C [22]: 16.8% | viability, T/C [23]: 20.3% | viability, T/C [24]: 15.2% | viability, T/C [25]: 15.4% | viability, T/C [26]: 14.7% | viability, T/C [27]: 13.7% | viability, T/C [28]: 14.9% | viability, T/C [29]: 17% | viability, T/C [30]: 15.1% | viability, T/C [31]: 14.6% | viability, T/C [32]: 14.6% | viability, T/C [33]: 13.5% | viability, T/C [34]: 15.1% | viability, T/C [35]: 17.1%

CC1COCCN1c1cc(C2(S(C)(=N)=O)CC2)nc(-c2ccnc3[nH]ccc23)n1 (centres undefined) + NC1CC1c1ccc(-c2cccc(O)c2)cc1
IC50 [1]: 368 nM | IC50 [2]: 318 nM | IC50 [3]: 293 nM | IC50 [4]: 253 nM | IC50 [5]: 104 nM | viability, T/C [8]: 88.3% | viability, T/C [9]: 82% | viability, T/C [10]: 51% | viability, T/C [11]: 28.8% | viability, T/C (second compound 0.1 µM, first compound 3.16 µM): 15.2% | viability, T/C (second compound 0.1 µM, first compound 10 µM): 11.4% | viability, T/C [14]: 66.8% | viability, T/C [15]: 58.8% | viability, T/C [16]: 51.8% | viability, T/C [17]: 26.5% | viability, T/C (second compound 0.316 µM, first compound 3.16 µM): 15.4% | viability, T/C (second compound 0.316 µM, first compound 10 µM): 11.4% | viability, T/C [20]: 63.1% | viability, T/C [21]: 61.6% | viability, T/C [22]: 48.9% | viability, T/C [23]: 25.5% | viability, T/C (second compound 1 µM, first compound 3.16 µM): 13.2% | viability, T/C (second compound 1 µM, first compound 10 µM): 11.5% | viability, T/C [26]: 59.4% | viability, T/C [27]: 63.6% | viability, T/C [28]: 46.3% | viability, T/C [29]: 23.2% | viability, T/C (second compound 3.16 µM, first compound 3.16 µM): 13.7% | viability, T/C (second compound 3.16 µM, first compound 10 µM): 11.8% | viability, T/C [32]: 50.9% | viability, T/C [33]: 53.3% | viability, T/C [34]: 39.6% | viability, T/C [35]: 27.1% | viability, T/C (second compound 10 µM, first compound 3.16 µM): 12.2% | viability, T/C (second compound 10 µM, first compound 10 µM): 11.4%

Nc1ccn(C2OC(CO)C(O)C2(F)F)c(=O)n1 (centres undefined)
viability, T/C (compound 0.000949 µM): 39.2% and 33.5% | viability, T/C (compound 0.003 µM): 12% and 10.8% | viability, T/C (compound 0.00949 µM): 6.12% and 5.67% | viability, T/C (compound 0.03 µM): 5.81% and 5.6% | viability, T/C (compound 0.0949 µM): 8.04% and 6.06% | viability, T/C (compound 0.3 µM): 6.84% and 5.56% | IC50 (curve of compound): < 0.949 nM

CC(C)CC(NC(=O)C(Cc1ccccc1)NC(=O)c1cnccn1)B(O)O (centres undefined) + NC1CCC(NC2CC2c2ccccc2)CC1
IC50 [1]: < 0.316 nM | IC50 [2]: < 0.316 nM | IC50 [3]: < 0.316 nM | IC50 [4]: < 0.316 nM | IC50 [5]: < 0.316 nM | viability, T/C (second compound 0.1 µM, first compound 0.000316 µM): 16.3% | viability, T/C (second compound 0.1 µM, first compound 0.001 µM): 0.63% | viability, T/C [6]: 0.17% | viability, T/C [7]: 0.16% | viability, T/C [8]: 0.11% | viability, T/C [9]: 0.14% | viability, T/C (second compound 0.316 µM, first compound 0.000316 µM): 15.9% | viability, T/C (second compound 0.316 µM, first compound 0.001 µM): 0.67% | viability, T/C [12]: 0.21% | viability, T/C [13]: 3.23% | viability, T/C [14]: 0.17% | viability, T/C [15]: 0.19% | viability, T/C (second compound 1 µM, first compound 0.000316 µM): 16.1% | viability, T/C (second compound 1 µM, first compound 0.001 µM): 0.64% | viability, T/C [18]: 0.24% | viability, T/C [19]: 0.12% | viability, T/C [20]: 0.26% | viability, T/C [21]: 0.25% | viability, T/C (second compound 3.16 µM, first compound 0.000316 µM): 13.8% | viability, T/C (second compound 3.16 µM, first compound 0.001 µM): 0.62% | viability, T/C [24]: 0.17% | viability, T/C [25]: 0.1% | viability, T/C [26]: 0.08% | viability, T/C [27]: 0.16% | viability, T/C (second compound 10 µM, first compound 0.000316 µM): 12.2% | viability, T/C (second compound 10 µM, first compound 0.001 µM): 0.55% | viability, T/C [30]: 0.22% | viability, T/C [31]: 0.19% | viability, T/C [32]: 0.14% | viability, T/C [33]: 0.47%

Nc1ncn(C2CC(O)C(CO)O2)c(=O)n1 (centres undefined) + NC1CC1c1ccc(-c2cccc(O)c2)cc1
IC50 [1]: 646 nM | IC50 [2]: 330 nM | IC50 [3]: 104 nM | IC50 [4]: 171 nM | IC50 [5]: 90.8 nM | viability, T/C [6]: 79.1% | viability, T/C [7]: 76.2% | viability, T/C [8]: 71.9% | viability, T/C [9]: 66.9% | viability, T/C [10]: 55% | viability, T/C [11]: 46.5% | viability, T/C [12]: 74.7% | viability, T/C [13]: 75% | viability, T/C [14]: 65.2% | viability, T/C [15]: 60.4% | viability, T/C [16]: 49.6% | viability, T/C [17]: 44.4% | viability, T/C [18]: 64.8% | viability, T/C [19]: 52.3% | viability, T/C [20]: 53.4% | viability, T/C [21]: 53.2% | viability, T/C [22]: 48% | viability, T/C [23]: 39.1% | viability, T/C [24]: 65.2% | viability, T/C [25]: 63.5% | viability, T/C [26]: 61.4% | viability, T/C [27]: 54% | viability, T/C [28]: 45.2% | viability, T/C [29]: 38.4% | viability, T/C [30]: 55% | viability, T/C [31]: 56.3% | viability, T/C [32]: 55.3% | viability, T/C [33]: 47.2% | viability, T/C [34]: 45.4% | viability, T/C [35]: 39.8%

CC1COCCN1c1cc(-c2ccnn2C)c2ccnc(-c3ccn[nH]3)c2n1 (centres undefined)
viability, T/C (compound 0.00316 µM): 15.4% and 15.1% | viability, T/C (compound 0.01 µM): 12.8% and 16.4% | viability, T/C (compound 0.0316 µM): 12.4% and 13% | viability, T/C (compound 0.1 µM): 16.3% and 14.8% | viability, T/C (compound 0.316 µM): 17.2% and 17.7% | viability, T/C (compound 1 µM): 17.8% and 18.7% | IC50 (curve of compound): < 3.16 nM
